We go through 20 compounds from US20160296499A1, “Spiroindoline Antiparasitic Derivatives” (ZOETIS SERVICES LLC, priority 2013, published 2016).

pKd, pKi: −log10 of the molar value. Where two headings read alike, the source gives them in different places.

For assay [1], the target named is T1, bovine vesicular acetylcholine transporter (VAChT) (Bos taurus, UniProt E1BK36).
T1 sequence (E1BK36 1-524): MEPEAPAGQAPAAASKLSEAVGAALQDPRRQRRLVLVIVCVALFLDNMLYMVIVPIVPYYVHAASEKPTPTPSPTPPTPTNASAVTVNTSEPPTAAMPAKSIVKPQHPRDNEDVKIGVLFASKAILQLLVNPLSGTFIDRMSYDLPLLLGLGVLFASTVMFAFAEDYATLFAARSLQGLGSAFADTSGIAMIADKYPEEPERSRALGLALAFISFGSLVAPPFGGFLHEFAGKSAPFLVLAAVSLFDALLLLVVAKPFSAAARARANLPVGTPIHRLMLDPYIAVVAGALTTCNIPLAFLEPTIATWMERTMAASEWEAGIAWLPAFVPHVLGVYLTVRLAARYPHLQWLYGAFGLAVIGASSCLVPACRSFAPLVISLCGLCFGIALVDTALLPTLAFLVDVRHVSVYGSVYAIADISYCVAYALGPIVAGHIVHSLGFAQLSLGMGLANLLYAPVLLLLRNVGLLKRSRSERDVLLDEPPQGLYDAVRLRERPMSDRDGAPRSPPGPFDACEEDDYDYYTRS
As to the kind of experiment: Radioligand Binding Assay. The conditions noted are these: for pKi: Bovine binding Ki, CHO-K1 membranes with recombinant bovine VAChT, [3H]Compound X6 0.3 nM.

For the next assay, the system named is Haemonchus contortus L3. As to the kind of experiment: Haemonchus contortus, Larvae Stage 3 (HcL3) In Vitro Assay. The conditions noted are these: Haemonchus contortus.
Assay [2] has as its system Dirofilaria immitis microfilariae. The assay can be described thus: Dirofilaria immitis, Microfilariae (DiMF) In Vitro Assay. To be noted: Dirofilaria immitis.
Where [3] appears, read: 96 h, read-out: HcL3 MEC, Minimal Effective Concentration whereby worm motility is inhibited by approximately 70%, 37° C., tested 0.001-100 μM.
[4] abbreviates: 72 h, read-out: Di MF, MEC, decrease in microfilariae motility by visual assessment, curve starting at 100 μM.
[5] abbreviates: 96 hours, 37° C., read-out: HcL3 MEC.

In the case of `O=C(NCC1CCCO1)N1CC2(CCN(C/C=C/c3ccc(Cl)c(Cl)c3)CC2)c2c1ccc1scnc21` (racemic) [Example 34, (+/−)(E)-1-(3-(3,4-dichlorophenyl)allyl)-N-((tetrahydrofuran-2-yl)methyl)spiro[piperidine-4,8′-thiazolo[4,5-e]indole]-6′(7′H)-carboxamide], in assay [1], the pKi (as a rule, the negative decadic logarithm of the Ki, by convention in mol/L) is 6.33. Moreover, the minimal effective concentration came out at 100 µM with Haemonchus contortus L3 (setting [3]) and 3.3 µM in assay [2] (setting [4]).

As to `O=C(NCC1CCOC1)N1CC2(CCN(C/C=C/c3ccc(Cl)c(Cl)c3)CC2)c2c1ccc1scnc21` (racemic) [Example 35, (+/−)(E)-1-(3-(3,4-dichlorophenyl)allyl)-N-((tetrahydrofuran-3-yl)methyl)spiro[piperidine-4,8′-thiazolo[4,5-e]indole]-6′(7′H)-carboxamide], the negative-log Ki (pKi) in assay [1] was 6.14. Also, the minimal effective concentration in the assay on Haemonchus contortus L3 (setting [3]) is 100 µM; in assay [2] (setting [4]) it was 3.3 µM.

As to `COc1ccc(/C=C/CN2CCC3(CC2)CN(C(=O)NCc2ccnc(Cl)c2)c2ccc(F)cc23)cc1` [Compound X6, reference compound], the pKd (in general, the negative decadic logarithm of the Kd, by convention in mol/L) in assay [1] is 9.22.

On to `O=C(NCc1ccnc(Cl)c1)N1CC2(CCN(C/C=C/c3ccc(Cl)c(Cl)c3)CC2)c2cc3c(cc21)COC3` [Example 1, (E)-N-((2-chloropyridin-4-yl)methyl)-1′-(3-(3,4-dichlorophenyl)allyl)-5,7-dihydrospiro[furo[3,4-f]indole-3,4′-piperidine]-1(2H)-carboxamide], for which the negative logarithm of the Ki (pKi) in assay [1] is 7.15. In addition, the minimal effective concentration in the assay on Haemonchus contortus L3 (setting [3]) turned out to be 1 µM.

Turning to `O=C(NCc1ccnc(F)c1)N1CC2(CCN(C/C=C/c3ccc(Cl)cc3)CC2)c2cc3c(cc21)COC3` [Example 2, (E)-1′-(3-(4-chlorophenyl)allyl)-N-((2-fluoropyridin-4-yl)methyl)-5,7-dihydrospiro[furo[3,4-f]indole-3,4′-piperidine]-1(2H)-carboxamide], the pKi in assay [1] was 6.49. Further, the minimal effective concentration stood at 18.2 µM with Haemonchus contortus L3 (setting [3]) and 10 µM in assay [2] (setting [4]).

In the case of `O=C(NCc1cnc(Cl)s1)N1CC2(CCN(C/C=C/c3ccc(Cl)cc3)CC2)c2cc3c(cc21)COC3` [Example 3, (E)-1′-(3-(4-chlorophenyl)allyl)-N-((2-chlorothiazol-5-yl)methyl)-5,7-dihydrospiro[furo[3,4-f]indole-3,4′-piperidine]-1(2H)-carboxamide], the pKi in assay [1] is 7.51. For the same compound, the minimal effective concentration in the assay on Haemonchus contortus L3 (setting [5]) came out at 3.3 µM; in assay [2] (72 hours, read-out: Di MF) it was 5.7 µM.

Regarding `O=C(NCc1ccnc(Cl)c1)N1CC2(CCN(C/C=C/c3ccc(F)cc3)CC2)c2cc3c(cc21)COC3` [Example 4, (E)-N-((2-chloropyridin-4-yl)methyl)-1′-(3-(4-fluorophenyl)allyl)-5,7-dihydrospiro[furo[3,4-f]indole-3,4′-piperidine]-1(2H)-carboxamide], the negative-log Ki (pKi) in assay [1] was 7.10. Besides, the minimal effective concentration in the assay on Haemonchus contortus L3 (setting [5]) was 10 µM; in assay [2] (72 hours, read-out: Di MF), 10 µM.

In the case of `N#Cc1ccc(/C=C/CN2CCC3(CC2)CN(C(=O)NCc2ccnc(Cl)c2)c2cc4c(cc23)COC4)cc1` [Example 5, (E)-N-((2-chloropyridin-4-yl)methyl)-1′-(3-(4-cyanophenyl)allyl)-5,7-dihydrospiro[furo[3,4-f]indole-3,4′-piperidine]-1(2H)-carboxamide], the pKi in assay [1] was 7.15. In addition, the minimal effective concentration in the assay on Haemonchus contortus L3 (setting [3]) stood at 33 µM; in assay [2] (setting [4]), 10 µM.

On to `O=C(NCc1ccnc(Cl)c1)N1CC2(CCN(C/C=C/c3ccc(Cl)cc3)CC2)c2cc3c(cc21)OCO3` [Example 6, (E)-1-(3-(4-chlorophenyl)allyl)-N-((2-chloropyridin-4-yl)methyl)spiro[piperidine-4,7′-[1,3]dioxolo[4,5-f]indole]-5′(6′H)-carboxamide], for which the pKi in assay [1] was 7.45. In addition, the minimal effective concentration with Haemonchus contortus L3 (setting [5]) was determined as 3.3 µM; in assay [2] (72 hours, read-out: Di MF), 10 µM.

In the case of `CC1(C)Oc2cc3c(cc2O1)C1(CCN(C/C=C/c2ccc(Cl)c(Cl)c2)CC1)CN3C(=O)NCc1ccnc(Cl)c1` [Example 7, (E)-N-((2-chloropyridin-4-yl)methyl)-1-(3-(3,4-dichlorophenyl)allyl)-2′,2′-dimethylspiro[piperidine-4,7′-[1,3]dioxolo[4,5-f]indole]-5′(6′H)-carboxamide], the pKi in assay [1] is 6.29. The minimal effective concentration in the assay on Haemonchus contortus L3 (setting [5]) was found to be 100 µM; in assay [2] (72 hours, read-out: Di MF) it was 10 µM.

`CC1(C)Oc2cc3c(cc2O1)C1(CCN(C/C=C/c2ccc(Cl)cc2)CC1)CN3C(=O)NCc1ccnc(Cl)c1` [Example 8, (E)-1-(3-(4-chlorophenyl)allyl)-N-((2-chloropyridin-4-yl)methyl)-2′,2′-dimethylspiro[piperidine-4,7′-[1,3]dioxolo[4,5-f]indole]-5′(6′H)-carboxamide]: in assay [1], the pKi was 5.82. The minimal effective concentration in the assay on Haemonchus contortus L3 (setting [5]) turned out to be 100 µM; in assay [2] (72 hours, read-out: Di MF), 10 µM.

Turning to `O=C(NCc1ccnc(Cl)c1)N1CC2(CCN(C/C=C/c3ccc(Cl)c(Cl)c3)CC2)c2cc3c(cc21)OCCO3` [Example 9, (E)-N-((2-chloropyridin-4-yl)methyl)-1-(3-(3,4-dichlorophenyl)allyl)-2′,3′-dihydrospiro[piperidine-4,8′-[1,4]dioxino[2,3-f]indole]-6′(7′H)-carboxamide], in assay [1], the negative-log Ki (pKi) is 7.20. For the same compound, the minimal effective concentration in the assay with Haemonchus contortus L3 (setting [3]) stood at 33 µM; in assay [2] (setting [4]) it was 10 µM.

Consider `O=C(NCc1ccnc(Cl)c1)N1CC2(CCN(C/C=C/c3ccc(Cl)c(Cl)c3)CC2)c2c1ccc1c2OCCO1` [Example 11, (E)-N-((2-chloropyridin-4-yl)methyl)-1-(3-(3,4-dichlorophenyl)allyl)-2′,3′-dihydrospiro[piperidine-4,9′-[1,4]dioxino[2,3-e]indole]-7′(8′H)-carboxamide], for which the negative-log Ki (pKi) in assay [1] is 6.75. Besides, the minimal effective concentration with Haemonchus contortus L3 (setting [3]) was 100 µM; in assay [2] (setting [4]), 10 µM.

Turning to `O=C(NCc1ccnc(Cl)c1)N1CC2(CCN(C/C=C/c3ccc(Cl)c(Cl)c3)CC2)c2cc3c(cc21)CCC3` [Example 12, (E)-N-((2-chloropyridin-4-yl)methyl)-1′-(3-(3,4-dichlorophenyl)allyl)-2,5,6,7-tetrahydro-1H-spiro[cyclopenta[f]indole-3,4′-piperidine]-1-carboxamide], the negative logarithm of the Ki (pKi) in assay [1] was 7.25. The minimal effective concentration in the assay with Haemonchus contortus L3 (setting [5]) came out at 2.2 µM; in assay [2] (72 hours, read-out: Di MF) it was 10 µM.

For the compound `O=C(NCc1ccncc1)N1CC2(CCN(C/C=C/c3ccc(Cl)c(Cl)c3)CC2)c2c1ccc1scnc21` [Example 13, (E)-1-(3-(3,4-dichlorophenyl)allyl)-N-(pyridin-4-ylmethyl)spiro[piperidine-4,8′-thiazolo[4,5-e]indole]-6′(7′H)-carboxamide], the negative-log Ki (pKi) in assay [1] was 6.42. Besides, the minimal effective concentration came to 100 µM in the assay on Haemonchus contortus L3 (setting [3]) and 10 µM in assay [2] (setting [4]).

As to `O=C(NCc1ncccn1)N1CC2(CCN(C/C=C/c3ccc(Cl)c(Cl)c3)CC2)c2c1ccc1scnc21` [Example 14, (E)-1-(3-(3,4-dichlorophenyl)allyl)-N-(pyrimidin-2-ylmethyl)spiro[piperidine-4,8′-thiazolo[4,5-e]indole]-6′(7′H)-carboxamide], the pKi in assay [1] was 6.14. Moreover, the minimal effective concentration in the assay on Haemonchus contortus L3 (setting [3]) amounted to 100 µM; in assay [2] (setting [4]) it was 10 µM.

For the compound `O=C(NCc1ccccc1)N1CC2(CCN(C/C=C/c3ccc(Cl)c(Cl)c3)CC2)c2c1ccc1scnc21` [Example 15, (E)-N-benzyl-1-(3-(3,4-dichlorophenyl)allyl)spiro[piperidine-4,8′-thiazolo[4,5-e]indole]-6′(7′H)-carboxamide], the pKi in assay [1] was 6.21. The minimal effective concentration with Haemonchus contortus L3 (setting [3]) turned out to be 100 µM; in assay [2] (setting [4]), 4.4 µM.

As to `O=C(NCc1ccc(F)cc1)N1CC2(CCN(C/C=C/c3ccc(Cl)c(Cl)c3)CC2)c2c1ccc1scnc21` [Example 16, (E)-1-(3-(3,4-dichlorophenyl)allyl)-N-(4-fluorobenzyl)spiro[piperidine-4,8′-thiazolo[4,5-e]indole]-6′(7′H)-carboxamide], the negative logarithm of the Ki (pKi) in assay [1] is 5.13. The minimal effective concentration is 100 µM in the assay with Haemonchus contortus L3 (setting [3]) and 3.3 µM in assay [2] (setting [4]).

Take `COc1nc2ccccc2cc1CN1CCC2(CC1)CN(C(=O)NCc1ccnc(Cl)c1)c1ccc(Cl)cc12` [Example 134, 5-chloro-N-((2-chloropyridin-4-yl)methyl)-1′-((2-methoxyquinolin-3-yl)methyl)spiro[indoline-3,4′-piperidine]-1-carboxamide]: the pKi in assay [1] was 7.46. Further, the minimal effective concentration in the assay with Haemonchus contortus L3 (setting [5]) worked out at 2 µM.

As to `CN(Cc1ccnc(Cl)c1)C(=O)N1CC2(CCN(C/C=C/c3ccc(Cl)cc3)CC2)c2cc(Cl)ccc21` [Example 188, (E)-5-chloro-1′-(3-(4-chlorophenyl)allyl)-N-((2-chloropyridin-4-yl)methyl)-N-methylspiro[indoline-3,4′-piperidine]-1-carboxamide], the pKi in assay [1] was 6.77. The minimal effective concentration in the assay on Haemonchus contortus L3 (setting [3]) came to 2 µM.
